Results reported in article PMC7217877, “N-AS-triggered SPMs are direct regulators of microglia in a model of Alzheimer’s disease” (Nature Communications, 2020).
“And” between values parts separate entries of the source, which are not always exact repeats. Equal values may be shown once.

Target: T1, COX2 (Homo sapiens, UniProt P35354)
T1 sequence (P35354 18-604): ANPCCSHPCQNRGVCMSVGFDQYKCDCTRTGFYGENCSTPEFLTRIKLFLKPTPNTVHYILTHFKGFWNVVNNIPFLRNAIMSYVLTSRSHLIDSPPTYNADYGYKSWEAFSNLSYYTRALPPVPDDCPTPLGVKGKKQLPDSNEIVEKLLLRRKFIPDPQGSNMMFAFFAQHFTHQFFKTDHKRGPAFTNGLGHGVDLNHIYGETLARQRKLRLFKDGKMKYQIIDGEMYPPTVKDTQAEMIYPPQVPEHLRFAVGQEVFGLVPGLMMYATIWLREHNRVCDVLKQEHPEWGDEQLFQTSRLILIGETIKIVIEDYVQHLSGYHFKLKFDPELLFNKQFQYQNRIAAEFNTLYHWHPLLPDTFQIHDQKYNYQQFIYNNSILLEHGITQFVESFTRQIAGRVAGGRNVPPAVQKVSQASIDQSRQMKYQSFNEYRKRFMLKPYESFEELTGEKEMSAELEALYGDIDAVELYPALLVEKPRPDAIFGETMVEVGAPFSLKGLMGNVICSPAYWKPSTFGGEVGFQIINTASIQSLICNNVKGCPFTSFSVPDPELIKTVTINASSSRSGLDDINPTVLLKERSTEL
Assay: lipid mediator and SPM biosynthesis by recombinant COX2 with 5-LOX (LC-MS/MS)
Assay type: biochemical
Parameters: purchased Cayman 60122
Settings: for 11-HETE, Product (%) / 15-HETE, Product (%) / 15R-LXA4, Product (%) / PGH2, Product (%): AA; for 11-HETE, Product (%) / 15-HETE, Product (%) / 15R-LXA4, Product (%) / PGH2, Product (%) / 13-HDHA, Product (%) / 17-HDHA, Product (%) / RvD1, Product (%) / 11-HEPE, Product (%) / 15-HEPE, Product (%) / 18-HEPE, Product (%) / RvE1, Product (%): acetylated huCOX2, mean±s.e.m., n=6; for 15R-LxA4 quantification (Fig 2c) / RvD1 quantification (Fig 2c) / RvE1 quantification (Fig 2c): Control COX2 + 5-LOX, replicates; for 13-HDHA, Product (%) / 17-HDHA, Product (%) / RvD1, Product (%): DHA; for 11-HEPE, Product (%) / 15-HEPE, Product (%) / 18-HEPE, Product (%) / RvE1, Product (%): EPA
Method: Lipid mediators metabololipidomics were performed according to previously described procedures with minor modifications[4],[30]. To confirm the biosynthesis of lipid mediators by recombinant COX2 treated with N-AS or aspirin, 10 U of human recombinant COX2 (Cayman, 60122) was incubated in the presence of 500 μM aspirin (Sigma-Aldrich, A5376) or N-AS (Sigma-Aldrich, 01912) at 37 °C for 30 min. The enzyme was filtered with a Microcon column (Millipore) to remove unreacted aspirin or N-AS and was then resuspended in 0.1 M Tris-HCl (pH 8.0). Next, 500 μM phenol (Sigma-Aldrich) and 1 μM hematin-porcine (Sigma-Aldrich) were added immediately before incubation with 100 μM AA, EPA or DHA (Cayman) at 37 °C for 2 h, respectively. The mixtures were incubated with 30 U of human 5-LOX (Cayman, 60402) containing 2 mM CaCl2 (Sigma-Aldrich), 1 mM ATP (Amresco) and 5 μM 13-HpODE (Cayman) as activators. Also, to validate the importance of residue S565 for N-AS-acetylation of COX2 and production of SPMs, 10 U of the COX2 S565A mutant was used in the above-described method. In addition, to confirm SPM generation in neurons and microglia, these cells were treated with Aβ and sonicated in neuronal and glial culture medium. […] To evaluate the relationship of N-AS and SPM production in microglia, microglia were isolated from WT, APP/PS1, and APP/PS1 treated with N-AS mice at 9 months of age. The microglia were sonicated and resuspended in microglial culture medium. The supernatants were incubated with 100 μM AA, EPA, and DHA (Cayman) at 37 °C for 2 h. A 50 μl aliquot of the mixture from each cell lysate was added to a 250 μl aliquot of 1 ng ml^−1 of 15S-LXA4-d5 (internal standard, Cayman) methanol solution. After vortexing for 10 min and centrifuging at 15,974×g for 5 min, the supernatant was subjected to the analysis of the lipid mediators using an Agilent 6470 Triple Quad LC-MS/MS system (Agilent) coupled to an Agilent 1290 HPLC system. Chromatographic separation was achieved using a Synergi Polar RP (4 μm, 2.0 mm i.d. × 150 mm, Phenomenex). Analytes were eluted with a mobile phase consisting of water: formic acid (100:0.1 v/v) (phase A) and methanol: formic acid (100:0.1 v/v) (phase B) in gradient elution mode for 23 min a flow rate of 0.2 ml min^−1. The elution gradient was as follows: from 0 to 0.1 min the content of phase A was 37% and the content of phase A was decreased to 10% and maintained for 5.5 min. The content of phase A was increased back to 37% at 6.0 min and maintained for 23 min. Quantification was carried out using MRM in negative ionization mode and collision energy of 10–15 eV. The mass transition from Q1 to Q3 is shown in Supplementary Table 2. In this study, the peak areas for all components were automatically integrated using MassHunter B 06.00.

Compound | 11-HETE, Product (%) | 15-HETE, Product (%) | 15R-LXA4, Product (%) | PGH2, Product (%) | 15R-LxA4 quantification (Fig 2c) | RvD1 quantification (Fig 2c) | RvE1 quantification (Fig 2c) | 13-HDHA, Product (%) | 17-HDHA, Product (%) | RvD1, Product (%) | 11-HEPE, Product (%) | 15-HEPE, Product (%) | 18-HEPE, Product (%) | RvE1, Product (%)
CC(=O)Oc1ccccc1C(=O)O [Aspirin, acetylsalicylic acid, reference compound] | 13.8±0.41% | 9.5±0.22% | 4.2±0.18% | 72.3±0.68% | 8734.32 and 9047.96 and 8672.38 and 8679.89 and 12017 and 8786.05 and 9112.59 | 529.99 and 519.44 and 632.8 and 532.11 and 521.52 | 3237.03 and 3196.43 and 4589.07 and 4937.89 and 3246.64 and 3210.17 | 5.0±0.15% | 94.6±0.22% | 0.4±0.01% | 27.3±1.40% | 5.8±0.06% | 61.3±0.32% | 3.1±0.25%
CCCCCCCCCCCCC/C=C/[C@@H](O)[C@H](CO)NC(C)=O [N-AS, N-((2S,3R,E)-1,3-Dihydroxyoctadec-4-en-2-yl)acetamide] | 13.1±0.55% | 13.3±0.59% | 4.8±0.23% | 69.7±1.08% | 10460.6 and 9709.13 and 8768.93 and 9235.99 and 8577.96 and 10535.3 | 670.43 and 829.94 and 668.56 and 744.28 and 781.34 and 739.49 and 733.66 | 4023.99 and 3322.2 and 4006.77 and 4517.41 and 3768.91 and 4998.35 and 3336.48 | 3.6±0.09% | 95.8±0.19% | 0.53±0.09% | 26.8±0.41% | 5.8±0.09% | 64.0±0.25% | 3.3±0.09%
